Earlier results, collected in US20090145189A1, “Composition and a manufacturing method thereof” (priority 2007, published 2009).

Key:
[1] = concentrations above 40 wt %, such as 50 wt %

Compound | Water solubility | Viscosity [1]
O=C(O)CN(CCN(CC(=O)O)CC(=O)O)CCN(CC(=O)O)CC(=O)O [DTPA, diethylenetriamine-N,N,N-penta-acetic acid] | low water solubility | 
O=C([O-])CN(CCN(CC(=O)[O-])CC(=O)[O-])CCN(CC(=O)[O-])CC(=O)[O-].[Na+].[Na+].[Na+].[Na+].[Na+] [DTPANa5, penta sodium salt of diethylenetriamine-N,N,N-penta-acetic acid] |  | too viscous to allow convenient handling
